Laboratory results as given in patent publication US20180148418A1, “AMIDO-SUBSTITUTED CYCLOHEXANE DERIVATIVES” (Bayer Pharma Aktiengesellschaft, priority 2015, published 2018).

Key:
TNKS2 = target: T1, TNKS2 (Homo sapiens, UniProt Q9H2K2); assay: TNKS2 Assay B (auto-parsylation, [3H]-NAD+ SPA); assay type: biochemical; details: 6 nM TNKS2, auto-parsylation, over night at room temperature
T1 construct: purchased BPS Bioscience, San Diego, USA 80572 (TNKS2 Histone Ribosylation Assay Kit)
T1 sequence (Q9H2K2 1-1166): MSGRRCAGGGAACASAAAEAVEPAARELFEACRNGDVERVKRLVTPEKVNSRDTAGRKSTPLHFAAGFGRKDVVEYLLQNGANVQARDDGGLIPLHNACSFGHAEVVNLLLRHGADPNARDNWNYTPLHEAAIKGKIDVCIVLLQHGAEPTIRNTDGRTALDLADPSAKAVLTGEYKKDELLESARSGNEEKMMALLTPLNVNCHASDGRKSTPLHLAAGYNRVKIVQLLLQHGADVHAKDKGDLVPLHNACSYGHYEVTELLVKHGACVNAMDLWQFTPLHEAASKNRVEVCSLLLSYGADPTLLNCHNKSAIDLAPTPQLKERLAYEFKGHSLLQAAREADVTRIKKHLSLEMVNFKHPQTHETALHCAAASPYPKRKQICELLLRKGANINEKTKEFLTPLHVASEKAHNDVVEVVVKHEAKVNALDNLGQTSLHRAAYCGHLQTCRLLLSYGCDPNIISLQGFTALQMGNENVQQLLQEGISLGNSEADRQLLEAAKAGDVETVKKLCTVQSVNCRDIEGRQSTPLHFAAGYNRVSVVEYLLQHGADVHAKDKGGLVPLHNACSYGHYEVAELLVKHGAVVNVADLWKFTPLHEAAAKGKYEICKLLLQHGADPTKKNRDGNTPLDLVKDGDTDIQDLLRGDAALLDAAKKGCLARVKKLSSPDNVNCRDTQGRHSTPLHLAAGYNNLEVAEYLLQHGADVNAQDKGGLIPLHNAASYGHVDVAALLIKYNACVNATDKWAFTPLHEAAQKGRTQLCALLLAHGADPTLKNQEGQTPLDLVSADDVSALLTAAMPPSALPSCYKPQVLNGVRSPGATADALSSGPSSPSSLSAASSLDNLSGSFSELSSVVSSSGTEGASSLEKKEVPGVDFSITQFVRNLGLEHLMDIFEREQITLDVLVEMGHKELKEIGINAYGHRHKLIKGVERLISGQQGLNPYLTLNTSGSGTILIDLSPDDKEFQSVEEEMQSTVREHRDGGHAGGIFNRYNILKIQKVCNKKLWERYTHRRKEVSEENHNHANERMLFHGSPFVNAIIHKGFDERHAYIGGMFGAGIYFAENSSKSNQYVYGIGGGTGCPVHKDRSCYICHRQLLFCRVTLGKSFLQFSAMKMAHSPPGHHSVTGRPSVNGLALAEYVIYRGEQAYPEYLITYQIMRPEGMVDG

[1] = system: HEK293 cells cotransfected with the FOP control vector; assay: HEK293 FOP assay (control reporter with non-functional TCF elements); assay type: cell-based; details: Homo sapiens, 16 hours
Summary of the method: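 Compound series from 50 μM down to 15 nM, prediluted in DMSO then 50-fold into CAFTY buffer (pH 7.4, 2 mM Ca2+, 0.01% BSA), tested alongside TOP cells on a Geneticin-selected HEK293 FOP line whose TCF elements are replaced by a random sequence; recombinant human Wnt-3a applied at 2500-5 ng/ml.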

Work on `CC(C)(O)CNC(=O)c1nc[nH]c1C(=O)N[C@H]1CC[C@H](C(=O)Nc2ccc(F)cc2Cl)CC1` [Example 75, N^5-{trans-4-[(2-chloro-4-fluorophenyl)carbamoyl]cyclohexyl}-N^4-(2-hydroxy-2-methylpropyl)-1H-imidazole-4,5-dicarboxamide] yielded an IC50 (TNKS2) of 100 nM and an IC50 [1] of no less than 50000 nM.
For `CC(C)OCCNC(=O)c1nc[nH]c1C(=O)N[C@H]1CC[C@H](C(=O)Nc2ccc(F)cc2Cl)CC1` [Example 76, N^5-{trans-4-[(2-chloro-4-fluorophenyl)carbamoyl]cyclohexyl}-N^4-(2-isopropoxyethyl)-1H-imidazole-4,5-dicarboxamide], the IC50 (TNKS2) was 78 nM and the IC50 [1] was no less than 50000 nM.
For `CC(C)NCCNC(=O)c1nc[nH]c1C(=O)N[C@H]1CC[C@H](C(=O)Nc2ccc(F)cc2Cl)CC1` [Example 77, N^5-{trans-4-[(2-chloro-4-fluorophenyl)carbamoyl]cyclohexyl}-N^4-[2-(isopropylamino)ethyl]-1H-imidazole-4,5-dicarboxamide], the IC50 (TNKS2) was 60 nM and the IC50 [1] was no less than 50000 nM.
`O=C(NCC1CCCO1)c1nc[nH]c1C(=O)N[C@H]1CC[C@H](C(=O)Nc2ccc(F)cc2Cl)CC1` (stereo partly drawn) [Example 78, N^5-{trans-4-[(2-chloro-4-fluorophenyl)carbamoyl]cyclohexyl}-N^4-(tetrahydrofuran-2-ylmethyl)-1H-imidazole-4,5-dicarboxamide] showed an IC50 (TNKS2) of 89 nM and an IC50 [1] of 9700 nM.
With `O=C(NC[C@@H]1CCCO1)c1nc[nH]c1C(=O)N[C@H]1CC[C@H](C(=O)Nc2ccc(F)cc2Cl)CC1` [Example 79, N^5-{trans-4-[(2-chloro-4-fluorophenyl)carbamoyl]cyclohexyl}-N^4-[(2S)-tetrahydrofuran-2-ylmethyl]-1H-imidazole-4,5-dicarboxamide] the IC50 (TNKS2) was 100 nM and the IC50 [1] was 43000 nM.
In the case of `O=C(NC[C@H]1CCCO1)c1nc[nH]c1C(=O)N[C@H]1CC[C@H](C(=O)Nc2ccc(F)cc2Cl)CC1` [Example 80, N^5-{trans-4-[(2-chloro-4-fluorophenyl)carbamoyl]cyclohexyl}-N^4-[(2R)-tetrahydrofuran-2-ylmethyl]-1H-imidazole-4,5-dicarboxamide], the IC50 (TNKS2) is reported as 50 nM and the IC50 [1] is reported as 23000 nM.
`COC(C)CNC(=O)c1nc[nH]c1C(=O)N[C@H]1CC[C@H](C(=O)Nc2ccc(F)cc2Cl)CC1` (stereo partly drawn) [Example 81, N^5-{trans-4-[(2-chloro-4-fluorophenyl)carbamoyl]cyclohexyl}-N^4-(2-methoxypropyl)-1H-imidazole-4,5-dicarboxamide] gave an IC50 (TNKS2) of 72 nM and an IC50 [1] of 6800 nM.
`COCC(C)NC(=O)c1nc[nH]c1C(=O)N[C@H]1CC[C@H](C(=O)Nc2ccc(F)cc2Cl)CC1` (stereo partly drawn) [Example 82, N^5-{trans-4-[(2-chloro-4-fluorophenyl)carbamoyl]cyclohexyl}-N^4-(1-methoxypropan-2-yl)-1H-imidazole-4,5-dicarboxamide] was tested, and the IC50 (TNKS2) was 250 nM and the IC50 [1] was no less than 50000 nM.
`COC[C@H](C)NC(=O)c1nc[nH]c1C(=O)N[C@H]1CC[C@H](C(=O)Nc2ccc(F)cc2Cl)CC1` [Example 83, N^5-{trans-4-[(2-chloro-4-fluorophenyl)carbamoyl]cyclohexyl}-N^4-[(2S)-1-methoxypropan-2-yl]-1H-imidazole-4,5-dicarboxamide] was tested, and the IC50 (TNKS2) was 270 nM and the IC50 [1] was 29000 nM.
`COC[C@@H](C)NC(=O)c1nc[nH]c1C(=O)N[C@H]1CC[C@H](C(=O)Nc2ccc(F)cc2Cl)CC1` [Example 84, N^5-{trans-4-[(2-chloro-4-fluorophenyl)carbamoyl]cyclohexyl}-N^4-[(2R)-1-methoxypropan-2-yl]-1H-imidazole-4,5-dicarboxamide] showed an IC50 (TNKS2) of 230 nM and an IC50 [1] of no less than 50000 nM.
`COC(C)(C)CNC(=O)c1nc[nH]c1C(=O)N[C@H]1CC[C@H](C(=O)Nc2cc(F)c(F)cc2Cl)CC1` [Example 85, N^5-{trans-4-[(2-chloro-4,5-difluorophenyl)carbamoyl]cyclohexyl}-N^4-(2-methoxy-2-methylpropyl)-1H-imidazole-4,5-dicarboxamide] showed an IC50 (TNKS2) of 23 nM and an IC50 [1] of 24000 nM.
